Experimental data published in patent US20110144014A1, “CYTOKINE RECEPTOR MODULATORS AND USES THEREOF” (CENTRE HOSPITALIER UNIVERSITAIRE SAINTE-JUSTINE, priority 2005, published 2011).
Marks after values point to notes of the source that are not given here. Where a SMILES comes first, the peptide text is derived from it. [ ]: non-standard residue; d: D form.

Assays:
IL-1R/IL-1RacP = assay: IL-1β-induced cGMP production in brain tissues ex vivo
Description: For these newly derived peptides, ex vivo experiments were then conducted. Brain tissues were incubated with the peptides and IL-1β and cGMP was measured with a commercial kit (Amersham Bioscience, cGMP assay biotrack™ system). API-101.10 already inhibited 85% of IL-1β-induced cGMP production (10^−6M) and API-101.103 and 101.106 inhibited more than 90% of cGMP production. Thus, removal of the negative charge of the glutamate and removal of the threonine can improve the potency of the antagonist.

[1] = tested on: TNBS-induced colon inflammation; assay: TNBS rat model of inflammatory bowel disease; assay type: in vivo
Description: Colon inflammation was induced by intra-rectal/colon administration of the hapten trinitrobenzene sulphonic acid (TNBS) on male Sprague-Dawley rats (175-200 g) (Bouma, Nature Rev, 2003; Morris, Gastroenterology, 1989). Animals were anesthetized with isoflurane and TNBS dissolved in 50% ethanol (vol/vol). 120 mg/ml (TNBS) was administered into the colon (total volume of 0.25 ml per rat) using a polyethylene tube (PE50). The cannula was inserted at 8 cm from the anus and kept in place for at least 15 minutes after TNBS administration in order to prevent expulsion of the solution. Two hours prior to TNBS administration, the API-101 derivative API-101.10 (1.1 mg/kg) or 0.9% saline was administered intravenously via the caudal vein (total volume of 0.3 ml). […] A third group (control) was not injected with TNBS. Six days after administration of TNBS, rats were killed by CO2 inhalation. Day 6 was chosen as an endpoint because by day 7 spontaneous tissue regeneration begins and this can mask the therapeutic effect of the tested peptide or peptide derivative. Colon was removed and examined macroscopically (adhesions, ulcerations, discoloration and bleeding) and histologically (neutrophil infiltration, epithelial injury, crypt distortion and ulcerations) (Anthony et al., Int. J. Exp. Path. 76:215-224, 1995; Padol et al., Eur. J. of Gastroenterol. Hepatol. 12:257-265, 2000; Dieleman et al., […], 1997; Torres et al., Digestive Diseases and Sciences 44:2523-2529, 1999). Two animals per group were studied.
Histological transversal sections were cut at 4-6 cm from the proximal anal region and colored with the hematoxylin/eosin method. The TNBS model of inflammatory bowel disease reproduces the inflammatory characteristics and tissue injuries of Crohn's disease (e.g., in humans). Morphologically, the colon of the animals injected with TNBS presented thickening, edema, and discoloration of the intestinal wall indicating a significant inflammation. […] Histological features consisted of neutrophil infiltration into the epithelial layer and crypts, epithelial lining injury as well as the loss of crypts. […] The organization and integrity of the crypts in the API-101.10-treated colon is conserved even if there is still some inflammation (half the dose of API-101.10 was used as compared to the macroscopic analysis experiment).
Colon inflammation was induced by intra-rectal/colon administration of the hapten trinitrobenzene sulphonic acid (TNBS) as described above. Two hours prior to TNBS administration, peptides, peptidomimetics or 0.9% saline were administered intravenously (iv) via the caudal vein (various concentrations of mg/kg/d) (total volume of 0.3 ml). […] A third group (control) was not injected with TNBS. For intermittent administration, fifteen minutes after TNBS administration, 101.10 (0.25-1 mg/kg), 101.107 (0.2 mg/kg), 101.113 (0.05-1 mg/kg) were administered by intermittent intraperitoneal injection (ip). Also, these IL-1R antagonists were given twice a day (BID); Remicade® (anti-TNFα) (10 mg/kg) and dexamethasone (0.75 mg/kg) were administered intraperitoneally but only once a day (qd). The intrarectal administration (ir) of 101.10, 101.113 (1 and 2.5 mg/kg), and 5-ASA (50 mg/kg) was done one hour after TNBS administration, and twice a day, except for 5-ASA which is once a day. Finally, 101.10 (1-5 mg/kg) was also administered orally by gavage (po), twice a day. Forty-eight hours after administration of TNBS, rats were killed by CO2 inhalation. The colon was removed and assessed macroscopically (adhesions, ulcerations, discoloration and bleeding) and histologically (neutrophil infiltration, epithelial injury, crypt distortion and ulcerations). One to seven animals per group were studied, according to treatments. Myeloperoxidase (MPO) activity was measured on tissue lysates.

[2] = continuous infusion (ip), 0.25 mg/kg/d
[3] = continuous infusion (ip), 0.75 mg/kg/d
[4] = continuous infusion (ip), 2.2 mg/kg/d
[5] = continuous infusion (ip), 4.0 mg/kg/d
[6] = intermittent injection (ip), 0.25-BID mg/kg/d
[7] = intermittent injection (ip), 0.50-BID mg/kg/d
[8] = intermittent injection (ip), 1.0-BID mg/kg/d
[9] = intermittent injection (ip), 1.0-BID mg/kg/d, 12 h after TNBS
[10] = intermittent injection (ip), 1.0-qd mg/kg/d
[11] = intrarectal administration, 2.5-BID mg/kg/d
[12] = intrarectal administration, + PEG-400, 1.0-BID mg/kg/d
[13] = intrarectal administration, + PEG-400, 2.5-BID mg/kg/d
[14] = oral administration, 5.0-BID mg/kg/d
[15] = oral administration, + PEG-400, 1.0-BID mg/kg/d
[16] = oral administration, + PEG-400, 2.5-BID mg/kg/d
[17] = oral administration, + PEG-400, 5.0-BID mg/kg/d

CC(C)C[C@@H](NC(=O)[C@@H](CCC(=O)O)NC(=O)[C@H](NC(=O)[C@H](NC(=O)[C@@H](Cc1ccc(O)cc1)NC(=O)[C@H](N)CCCNC(=N)N)[C@H](C)O)C(C)C)C(=O)N[C@H](C)C(N)=O [API-101.10, RYTVELA] (H-[dR][dY][dT][dV][dE][dL][dA]-NH2; N-terminus and C-terminus assumed)
inhibition of IL-1β-induced cGMP production (IL-1R/IL-1RacP; brain tissues, 10^−6M): 85% | activity compared with Kineret (IL-1R/IL-1RacP; data not shown): superior | TNBS-induced colon damage ([1]; 1.1 mg/kg iv 2 h before TNBS, then 2.2 mg/kg continuous ip infusion, day 6): prevented TNBS-induced colon damage | Histologic evaluation (median score) [1, 2]: 2 (Small ulcer (<5 crypts)) | MPO (% of TNBS + Saline) [1, 2]: 34 % of TNBS + Saline | Histologic evaluation (median score) [1, 3]: 4.4 median score | MPO (% of TNBS + Saline) [1, 3]: 54 % of TNBS + Saline | Histologic evaluation (median score) [1, 4]: 2 (Small ulcer (<5 crypts)) | MPO (% of TNBS + Saline) [1, 4]: 46 ± 22 % of TNBS + Saline | Histologic evaluation (median score) [1, 5]: 2 (Small ulcer (<5 crypts)) | MPO (% of TNBS + Saline) [1, 5]: 82 % of TNBS + Saline | inflammatory features and MPO activity ([1]; gavage twice a day, 5.0 mg/kg/d): substantially reduces | Histologic evaluation (median score) [1, 6]: 2.25 median score | MPO (% of TNBS + Saline) [1, 6]: 85 % of TNBS + Saline | Macroscopic evaluation (median score) [1, 6]: 0.87 median score | Histologic evaluation (median score) [1, 7]: 3 (Medium ulcer (5-10 crypts)) | MPO (% of TNBS + Saline) [1, 7]: 126 % of TNBS + Saline | Macroscopic evaluation (median score) [1, 7]: 0.87 median score | Histologic evaluation (median score) [1, 8]: 1.25 median score | MPO (% of TNBS + Saline) [1, 8]: 47 ± 9 % of TNBS + Saline | Macroscopic evaluation (median score) [1, 8]: 0.8 ± 0.1 median score | Histologic evaluation (median score) [1, 9]: 2.6 median score | Macroscopic evaluation (median score) [1, 9]: 1.1 ± 0.1 median score | MPO (% of TNBS + Saline) ([1]; intermittent injection (ip), 1.0-BID mg/kg/d, 12 h after TNBS, leucocyte infiltration has already occurred): 123 ± 18 % of TNBS + Saline | Histologic evaluation (median score) [1, 10]: 5 (Marked denudation (>20 crypts)) | MPO (% of TNBS + Saline) [1, 10]: 67 % of TNBS + Saline | Macroscopic evaluation (median score) [1, 10]: 1.63 median score | MPO activity, macroscopic and histologic score ([1]; intraperitoneal osmotic pumps (continuous infusion), superior or equivalent to Kineret): marked reductions | MPO (% of TNBS + Saline) [1, 11]: 111 ± 25 % of TNBS + Saline | Macroscopic evaluation (median score) [1, 11]: 1.4 ± 0.1 median score | Histologic evaluation (median score) [1, 12]: 3.2 median score | MPO (% of TNBS + Saline) [1, 12]: 110 % of TNBS + Saline | Macroscopic evaluation (median score) [1, 12]: 1.25t median score | Histologic evaluation (median score) [1, 13]: 3.9 median score | MPO (% of TNBS + Saline) [1, 13]: 59 % of TNBS + Saline | Macroscopic evaluation (median score) [1, 13]: 1.17^† median score | reduction of MPO activity ([1]; intrarectally, 2.5 mg/kg/d): 50% | Histologic evaluation (median score) [1, 14]: 2.25 median score | MPO (% of TNBS + Saline) [1, 14]: 65 % of TNBS + Saline | Macroscopic evaluation (median score) [1, 14]: 0.75 median score | Histologic evaluation (median score) [1, 15]: 3.5 median score | MPO (% of TNBS + Saline) [1, 15]: 167 % of TNBS + Saline | Macroscopic evaluation (median score) [1, 15]: 1.0 median score | Histologic evaluation (median score) [1, 16]: 3.5 median score | MPO (% of TNBS + Saline) [1, 16]: 176 % of TNBS + Saline | Macroscopic evaluation (median score) [1, 16]: 1.25 median score | Histologic evaluation (median score) [1, 17]: 3.6 median score | MPO (% of TNBS + Saline) [1, 17]: 57 % of TNBS + Saline | Macroscopic evaluation (median score) [1, 17]: 1.5 median score | efficacy of intermittent administration ([1]; twice a day, surpasses dexamethasone, Remicade and 5-ASA): dose-dependent efficacy
